Blank lines part the entries; values can stand above or below the compound they belong to. The source made the active and inactive calls. The calls are words filed in the database; no cut-off is given here.
What was measured:
Keap1/Nrf2 [1] = molecular target: T1, Keap1/Nrf2 (Homo sapiens, UniProt Q14145); assay: Inhibition of recombinant human KEAP1 Kelch domain (321 to 609 residues) expressed in Escherichia coli BL21 (DE3)pLysS cells interaction with FITC-9mer Nrf2 (unknown origin) incubated for 30 mins under shaking condition by fluorescence polarization assay
[2] = molecular target: T2, Nuclear factor erythroid 2-related factor 2 (Mus musculus) (UniProt Q60795); assay: Activation of Nrf2 in mouse BV-2 cells assessed as upregulation of HO-1 protein expression at 20 uM measured after 24 hrs by Western blot analysis; format: cell-based; settings: filed as activator
T2 sequence (whole entry): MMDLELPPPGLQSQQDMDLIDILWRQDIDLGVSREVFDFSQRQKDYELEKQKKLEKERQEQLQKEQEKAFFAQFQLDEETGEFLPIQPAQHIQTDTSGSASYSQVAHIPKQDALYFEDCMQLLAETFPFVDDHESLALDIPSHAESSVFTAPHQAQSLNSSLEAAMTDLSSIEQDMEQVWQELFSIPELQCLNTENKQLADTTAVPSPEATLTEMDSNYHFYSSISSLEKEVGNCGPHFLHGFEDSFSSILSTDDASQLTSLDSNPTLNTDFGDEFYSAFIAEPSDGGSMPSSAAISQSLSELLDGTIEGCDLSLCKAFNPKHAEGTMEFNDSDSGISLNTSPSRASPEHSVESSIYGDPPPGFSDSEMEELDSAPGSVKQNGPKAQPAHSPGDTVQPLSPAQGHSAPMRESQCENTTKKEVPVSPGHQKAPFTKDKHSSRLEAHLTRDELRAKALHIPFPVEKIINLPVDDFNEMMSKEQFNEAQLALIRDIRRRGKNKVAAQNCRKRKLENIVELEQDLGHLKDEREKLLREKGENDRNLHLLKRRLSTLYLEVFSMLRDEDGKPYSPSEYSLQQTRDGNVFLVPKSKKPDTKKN

[3] = molecular target: T2, Nuclear factor erythroid 2-related factor 2 (Mus musculus); assay: Activation of Nrf2 in mouse BV-2 cells assessed as upregulation of NQO-1 protein expression at 20 uM measured after 24 hrs by Western blot analysis; format: cell-based; settings: filed as activator
[4] = molecular target: Keap1/Nrf2 (Homo sapiens) (UniProt Q16236+Q14145); assay: Inhibition of Keap1-Nrf2 protein-protein interaction in human HepG2-ARE-C8 cells assessed as Nrf2 activation mediated ARE-driven luciferase activity by measuring fold change at 10 uM measured after 24 hrs by luciferase reporter gene assay; format: cell-based
[5] = molecular target: T2, Nuclear factor erythroid 2-related factor 2 (Mus musculus); assay: Activation of Nrf2 in mouse BV-2 cells assessed as increase in HO-1 mRNA level at 10 uM measured within 6 hrs by qRT-PCR analysis relative to negative control; format: cell-based; settings: time hrs <6
HepG2 = assay: Cytotoxicity against human HepG2 cells up to 50 uM by Alamar blue assay; format: cell-based
BV-2 [6] = assay: Cytotoxicity against mouse BV-2 cells up to 50 uM by Alamar blue assay; format: cell-based
Keap1/Nrf2 [7] = molecular target: T1, Keap1/Nrf2; assay: Inhibition of recombinant human KEAP1 Kelch domain (321 to 609 residues) expressed in Escherichia coli BL21 (DE3)pLysS cells interaction with FITC-9mer Nrf2 (unknown origin) incubated for 30 mins under shaking condition by TR-FRET assay
[8] = molecular target: T2, Nuclear factor erythroid 2-related factor 2 (Mus musculus); assay: Activation of Nrf2 in mouse BV-2 cells assessed as increase in HO-1 mRNA level at 10 uM measured after 24 hrs by qRT-PCR analysis relative to control; format: cell-based; settings: filed as activator
[9] = molecular target: T2, Nuclear factor erythroid 2-related factor 2 (Mus musculus); assay: Activation of Nrf2 in mouse BV-2 cells assessed as increase in NQO-1 mRNA level at 10 uM measured after 6 hrs by qRT-PCR analysis relative to control; format: cell-based; settings: filed as activator
[10] = molecular target: T2, Nuclear factor erythroid 2-related factor 2 (Mus musculus); assay: Activation of Nrf2 in mouse BV-2 cells assessed as increase in NQO-1 mRNA level at 10 uM measured after 24 hrs by qRT-PCR analysis relative to control; format: cell-based; settings: filed as activator
[11] = molecular target: T2, Nuclear factor erythroid 2-related factor 2 (Mus musculus); assay: Activation of Nrf2 in mouse BV-2 cells assessed as increase in HO-1 mRNA level at 1 to 10 uM measured up to 24 hrs by qRT-PCR analysis relative to control; format: cell-based
[12] = molecular target: T2, Nuclear factor erythroid 2-related factor 2 (Mus musculus); assay: Activation of Nrf2 in mouse BV-2 cells assessed as increase in NQO-1 mRNA level measured after 6 to 24 hrs by qRT-PCR analysis; format: cell-based; settings: filed as activator, dose 1-10 µM, time 6-24 hrs
[13] = molecular target: T2, Nuclear factor erythroid 2-related factor 2 (Mus musculus); assay: Activation of Nrf2 in mouse BV-2 cells assessed as increase in NQO-1 mRNA level at 1 to 10 uM by qRT-PCR analysis; format: cell-based; settings: filed as activator, dose 1-10 µM, time 6-24 hrs
[14] = molecular target: T2, Nuclear factor erythroid 2-related factor 2 (Mus musculus); assay: Activation of Nrf2 in mouse BV-2 cells assessed as upregulation of HO-1 protein expression at 10 uM measured after 24 hrs by Western blot analysis relative to control; format: cell-based; settings: filed as activator
[15] = molecular target: T2, Nuclear factor erythroid 2-related factor 2 (Mus musculus); assay: Activation of Nrf2 in mouse BV-2 cells assessed as upregulation of NQO-1 protein expression at 10 uM measured after 24 hrs by Western blot analysis relative to control; format: cell-based; settings: filed as activator
[16] = molecular target: T2, Nuclear factor erythroid 2-related factor 2 (Mus musculus); assay: Activation of Nrf2 in mouse BV-2 cells assessed as upregulation of HO-1 protein expression measured after 24 hrs by Western blot analysis; format: cell-based; settings: filed as activator
[17] = molecular target: T2, Nuclear factor erythroid 2-related factor 2 (Mus musculus); assay: Activation of Nrf2 in mouse BV-2 cells assessed as upregulation of NQO-1 protein expression measured after 24 hrs by Western blot analysis; format: cell-based; settings: filed as activator
[18] = molecular target: T2, Nuclear factor erythroid 2-related factor 2 (Mus musculus); assay: Activation of Nrf2 in mouse BV-2 cells assessed as increase in translocation of Nrf2 into nucleus at 10 uM measured after 6 to 24 hrs by […]; format: cell-based; settings: filed as activator, time 6-24 hrs
[19] = molecular target: T2, Nuclear factor erythroid 2-related factor 2 (Mus musculus); assay: Activation of Nrf2 in mouse BV-2 cells assessed as increase in DNA binding activity at 10 uM measured after 6 hrs by spectrophotometric analysis relative to control; format: cell-based; settings: filed as activator
[20] = molecular target: T2, Nuclear factor erythroid 2-related factor 2 (Mus musculus); assay: Activation of Nrf2 in mouse BV-2 cells assessed as increase in DNA binding activity at 10 uM measured after 24 hrs by spectrophotometric analysis relative to control; format: cell-based; settings: filed as activator
BV-2 [21] = assay: Upregulation of HO-1 in mouse BV-2 cells transfected with Nrf2 shRNA at 10 uM measured after 24 hrs by qPCR analysis; format: functional, cell-based
BV-2 [22] = assay: Upregulation of NQO-1 in mouse BV-2 cells transfected with Nrf2 shRNA at 10 uM measured after 24 hrs by qPCR analysis; format: functional, cell-based
BV-2 [23] = assay: Antiinflammatory activity in mouse BV-2 cells assessed as suppression of LPS-induced […] mRNA expression at 10 uM measured up to 24 hrs by qRT-PCR analysis; format: functional, cell-based
BV-2 [24] = assay: Antiinflammatory activity in mouse BV-2 cells assessed as suppression of LPS-induced […] protein expression at 10 uM measured up to 24 hrs by ELISA; format: functional, cell-based
BV-2 [25] = assay: Antiinflammatory activity in mouse BV-2 cells assessed as suppression of LPS-induced IL-6 mRNA expression at 10 uM measured up to 24 hrs by qRT-PCR analysis; format: functional, cell-based
BV-2 [26] = assay: Antiinflammatory activity in mouse BV-2 cells assessed as suppression of LPS-induced IL-6 protein expression at 10 uM measured up to 24 hrs by ELISA; format: functional, cell-based
BV-2 [27] = assay: Antiinflammatory activity in mouse BV-2 cells assessed as suppression of LPS-induced TNF-alpha mRNA expression at 10 uM measured up to 24 hrs by qRT-PCR analysis; format: functional, cell-based
BV-2 [28] = assay: Antiinflammatory activity in mouse BV-2 cells assessed as suppression of LPS-induced TNF-alpha protein expression at 10 uM measured up to 24 hrs by ELISA; format: functional, cell-based

T1 sequence (Q16236 whole entry, the tested form may be a part): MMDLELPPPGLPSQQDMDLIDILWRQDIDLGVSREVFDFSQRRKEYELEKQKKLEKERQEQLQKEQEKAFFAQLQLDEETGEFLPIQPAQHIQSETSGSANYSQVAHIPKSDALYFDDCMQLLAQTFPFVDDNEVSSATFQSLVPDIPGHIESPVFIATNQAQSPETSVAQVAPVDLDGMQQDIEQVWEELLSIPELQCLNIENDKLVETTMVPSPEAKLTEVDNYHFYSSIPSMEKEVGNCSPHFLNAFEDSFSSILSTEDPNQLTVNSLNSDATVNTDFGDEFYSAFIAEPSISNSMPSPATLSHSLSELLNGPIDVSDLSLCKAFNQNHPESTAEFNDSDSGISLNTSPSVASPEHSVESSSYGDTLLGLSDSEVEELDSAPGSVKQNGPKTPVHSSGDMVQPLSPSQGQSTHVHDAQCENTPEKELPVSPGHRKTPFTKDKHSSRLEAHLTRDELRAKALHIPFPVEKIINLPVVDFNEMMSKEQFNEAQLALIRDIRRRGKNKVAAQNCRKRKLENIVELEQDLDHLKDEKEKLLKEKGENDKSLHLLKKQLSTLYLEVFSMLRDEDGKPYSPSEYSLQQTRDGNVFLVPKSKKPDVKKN
T1 sequence (Q14145 whole entry, the tested form may be a part): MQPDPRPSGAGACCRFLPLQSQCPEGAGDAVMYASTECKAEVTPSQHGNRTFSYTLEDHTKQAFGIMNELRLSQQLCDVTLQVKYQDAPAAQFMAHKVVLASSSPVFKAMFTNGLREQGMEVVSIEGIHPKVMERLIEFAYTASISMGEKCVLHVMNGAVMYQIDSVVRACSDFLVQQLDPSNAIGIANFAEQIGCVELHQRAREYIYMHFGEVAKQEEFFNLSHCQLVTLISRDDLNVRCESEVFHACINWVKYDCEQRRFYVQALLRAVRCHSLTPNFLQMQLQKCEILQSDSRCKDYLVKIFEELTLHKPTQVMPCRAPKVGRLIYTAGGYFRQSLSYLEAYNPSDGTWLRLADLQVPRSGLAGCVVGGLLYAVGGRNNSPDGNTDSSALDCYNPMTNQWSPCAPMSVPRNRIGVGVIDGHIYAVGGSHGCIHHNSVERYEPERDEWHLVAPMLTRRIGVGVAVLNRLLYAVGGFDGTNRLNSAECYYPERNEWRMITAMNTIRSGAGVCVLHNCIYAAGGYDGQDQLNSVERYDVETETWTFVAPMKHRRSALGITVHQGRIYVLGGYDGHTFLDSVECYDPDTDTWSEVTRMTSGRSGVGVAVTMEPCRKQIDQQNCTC
Chain of Keap1/Nrf2 (Homo sapiens) (Q14145 whole entry, looked up): as the sequence (Q14145 whole entry, the tested form may be a part) above
Chain of Keap1/Nrf2 (Homo sapiens) (Q16236 whole entry, looked up): as the sequence (Q16236 whole entry, the tested form may be a part) above

Structure (SMILES): CN(C)C=O
Activity [2]: Active
Activity [3]: Active

Structure (SMILES): CS(=O)(=O)Nc1ccc(S(=O)(=O)N(CC(=O)O)c2ccc(N(CC(=O)O)S(=O)(=O)c3ccc(NS(C)(=O)=O)cc3)c3ccccc23)cc1
IC50 (Keap1/Nrf2 [1]): 194 nM

Structure (SMILES): O=C(O)CN(c1ccc(N(CC(=O)O)S(=O)(=O)c2ccc3c(c2)CCO3)c2ccccc12)S(=O)(=O)c1ccc2c(c1)CCO2
IC50 (Keap1/Nrf2 [1]): 164 nM
fold change (FC) [5]: < 2
fold change (FC) [8]: 4
Activity (HepG2): Non-Toxic
Activity (BV-2 [6]): Non-Toxic

Structure (SMILES): O=C(O)CN(c1ccc(N(CC(=O)O)S(=O)(=O)c2ccc3c(c2)OCCO3)c2ccccc12)S(=O)(=O)c1ccc2c(c1)OCCO2
IC50 (Keap1/Nrf2 [1]): 120 nM
IC50 (Keap1/Nrf2 [7]): 31.3 nM
fold change (FC) [5]: < 2
Activity (HepG2): Non-Toxic
Activity (BV-2 [6]): Non-Toxic

Structure (SMILES): O=S(=O)(c1ccc2c(c1)OCCO2)N(Cc1nnn[nH]1)c1ccc(N(Cc2nnn[nH]2)S(=O)(=O)c2ccc3c(c2)OCCO3)c2ccccc12
IC50 (Keap1/Nrf2 [1]): 93.5 nM
IC50 (Keap1/Nrf2 [7]): 7.2 nM
fold change (FC) [5]: < 2
Activity (HepG2): Non-Toxic
Activity (BV-2 [6]): Non-Toxic

Structure (SMILES): O=C(O)CN(c1ccc(N(CC(=O)O)S(=O)(=O)c2ccc(C(F)(F)F)cc2)c2ccccc12)S(=O)(=O)c1ccc(C(F)(F)F)cc1
IC50 (Keap1/Nrf2 [1]): 384 nM

Structure (SMILES): O=S(=O)(c1ccc(C(F)(F)F)cc1)N(Cc1nnn[nH]1)c1ccc(N(Cc2nnn[nH]2)S(=O)(=O)c2ccc(C(F)(F)F)cc2)c2ccccc12
IC50 (Keap1/Nrf2 [1]): 302 nM

Structure (SMILES): O=C(O)CN(c1ccc(N(CC(=O)O)S(=O)(=O)c2cc3c(cc2Cl)OCCO3)c2ccccc12)S(=O)(=O)c1cc2c(cc1Cl)OCCO2
fold change (FC) [4]: > 2
IC50 (Keap1/Nrf2 [1]): 144 nM
IC50 (Keap1/Nrf2 [7]): 8.9 nM
fold change (FC) [5]: < 2
fold change (FC) [9]: 3
fold change (FC) [10]: 18
fold change (FC) [11]: < 2
Activity [12]: Dose-Dependent Effect
Activity [13]: Tde
fold change (FC) [14]: 2
fold change (FC) [15]: 3
Activity [16]: Dose-Dependent Effect
Activity [17]: Dose-Dependent Effect
Activity (HepG2): Non-Toxic
Activity (BV-2 [6]): Non-Toxic
Activity [18]: Active
fold change (FC) [19]: 3
fold change (FC) [20]: 3
Activity (BV-2 [21]): inactive
Activity (BV-2 [22]): inactive
Activity (BV-2 [23]): Active
Activity (BV-2 [24]): Active
Activity (BV-2 [25]): Active
Activity (BV-2 [26]): Active
Activity (BV-2 [27]): Active
Activity (BV-2 [28]): Active

Structure (SMILES): O=C(O)CN(c1ccc(N(CC(=O)O)S(=O)(=O)c2ccc(Br)cc2)c2ccccc12)S(=O)(=O)c1ccc(Br)cc1
IC50 (Keap1/Nrf2 [1]): 235 nM

Continued by falling IC50 (Keap1/Nrf2 [1]), values first:

IC50 (Keap1/Nrf2 [1]): 184 nM
Structure (SMILES): COc1ccc(S(=O)(=O)N(CC(=O)O)c2ccc(N(CC(=O)O)S(=O)(=O)c3ccc(OC)cc3Br)c3ccccc23)c(Br)c1

fold change (FC) [4]: > 2
IC50 (Keap1/Nrf2 [1]): 149 nM
fold change (FC) [5]: < 2
Structure (SMILES): O=C(O)CN(c1ccc(N(CC(=O)O)S(=O)(=O)c2ccc3c(c2)OCO3)c2ccccc12)S(=O)(=O)c1ccc2c(c1)OCO2
Activity (HepG2): Non-Toxic
Activity (BV-2 [6]): Non-Toxic

IC50 (Keap1/Nrf2 [1]): 146 nM
fold change (FC) [5]: < 2
fold change (FC) [9]: 4
Structure (SMILES): O=C(O)CN(c1ccc(N(CC(=O)O)S(=O)(=O)c2ccc3c(c2)CCCO3)c2ccccc12)S(=O)(=O)c1ccc2c(c1)CCCO2
Activity (HepG2): Non-Toxic
Activity (BV-2 [6]): Non-Toxic

IC50 (Keap1/Nrf2 [1]): 126 nM
Structure (SMILES): O=C(O)CN(c1ccc(N(CC(=O)O)S(=O)(=O)c2ccc(NC(=O)C(F)(F)F)cc2)c2ccccc12)S(=O)(=O)c1ccc(NC(=O)C(F)(F)F)cc1

IC50 (Keap1/Nrf2 [1]): 96.7 nM
IC50 (Keap1/Nrf2 [7]): 10.8 nM
Structure (SMILES): COc1ccc(S(=O)(=O)N(Cc2nnn[nH]2)c2ccc(N(Cc3nnn[nH]3)S(=O)(=O)c3ccc(OC)cc3)c3ccccc23)cc1

IC50 (Keap1/Nrf2 [1]): 82 nM
IC50 (Keap1/Nrf2 [7]): 11.5 nM
Structure (SMILES): O=C(O)CN(c1ccc(N(CC(=O)O)S(=O)(=O)c2ccc(N3C(=O)c4ccccc4C3=O)cc2)c2ccccc12)S(=O)(=O)c1ccc(N2C(=O)c3ccccc3C2=O)cc1

Reference: ChEMBL document CHEMBL4811319, “Optimization of 1,4-bis(arylsulfonamido)naphthalene-N,N'-diacetic acids as inhibitors of Keap1-Nrf2 protein-protein interaction to suppress neuroinflammation” (Bioorg Med Chem, 2021)
